The target of this test is T1, human CTPS1 (Homo sapiens, UniProt P17812).
T1 construct: FLAG (with GG linker); His8 (with GG linker); purchased Proteros biostructures GmbH
T1 sequence (P17812 1-591): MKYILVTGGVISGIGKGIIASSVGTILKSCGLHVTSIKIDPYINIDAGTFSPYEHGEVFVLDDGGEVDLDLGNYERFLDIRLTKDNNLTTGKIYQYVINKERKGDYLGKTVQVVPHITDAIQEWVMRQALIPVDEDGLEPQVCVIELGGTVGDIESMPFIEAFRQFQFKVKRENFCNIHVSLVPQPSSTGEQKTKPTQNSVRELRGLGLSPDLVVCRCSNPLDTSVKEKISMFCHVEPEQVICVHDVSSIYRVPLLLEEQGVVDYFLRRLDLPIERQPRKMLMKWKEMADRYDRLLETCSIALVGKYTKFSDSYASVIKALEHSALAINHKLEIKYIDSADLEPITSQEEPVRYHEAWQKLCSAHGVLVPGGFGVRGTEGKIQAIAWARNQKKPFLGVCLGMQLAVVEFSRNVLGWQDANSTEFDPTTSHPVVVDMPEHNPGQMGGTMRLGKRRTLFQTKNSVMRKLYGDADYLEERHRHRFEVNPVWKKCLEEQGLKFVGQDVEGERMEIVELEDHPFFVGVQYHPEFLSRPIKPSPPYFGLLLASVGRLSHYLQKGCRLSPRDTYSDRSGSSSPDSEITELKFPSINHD
Briefly: Human CTPS1 enzyme inhibition, ADP-Glo Max assay. The class given is biochemical. The settings on record: ADP-Glo Max assay; Table 10; read-out: Human CTPS1 Enzyme Inhibition, IC50 grouped by potency range (CTPS1). As to the method: The enzyme inhibitory activities of compounds invented against the target of interest were determined using the ADP-Glo™ Max assay (Promega, UK). Assays for human CTPS1 were performed in 1× assay buffer containing 50 mM Tris, 10 mM MgCl2, 0.01% Tween-20, pH to 8.0 accordingly. Finally, immediately before use, L-cysteine was added to the 1× assay buffer to a final concentration of 2 mM. All reagents are from Sigma-Aldrich unless specified otherwise.
3× human CTPS1 protein was prepared in 1× assay buffer to the final working protein concentration required for the reaction. A 2 uL volume per well of 3× human CTPS1 protein was mixed with 2 uL per well of 3× test compound (compound prepared in 1× assay buffer to an appropriate final 3× compound concentration respective to the concentration response curve designed for the compounds under test) for 10 minutes at 25° C. […] ADP-Glo™ Max reagent was added for 60 minutes (6 μL per well) and subsequently ADP-Glo™ Max development reagent was added for 60 minutes (12 uL per well) prior to signal detection in a microplate reader (EnVision® Multilabel Reader, Perkin Elmer). Following each reagent addition over the course of the assay, assay plates were pulse centrifuged for 30 seconds at 500 rpm.
In all cases, the enzyme converts ATP to ADP and the ADP-Glo™ Max reagent subsequently depletes any remaining endogenous ATP in the reaction system. The ADP-Glo™ Max detection reagent converts the ADP that has been enzymatically produced back into ATP and using ATP as a substrate together with luciferin for the enzyme luciferase, light is generated which produces a detectable luminescence. […] The percentage inhibition produced by each concentration of compound was calculated using the equation shown below: […]
In general terms: ADP-Glo turns the ADP formed in a reaction into a luminescent signal.

The results in this text go back to patent US20230086703A1, “N-(4-(5-chloropyridin-3-yl)phenyl)-2-(2-(cyclopropanesulfonamido)pyrimidin-4-yl) butanamide derivatives and related compounds as human CTPS1 inhibitors for the treatment of proliferative diseases” (Step Pharma S.A.S., priority 2019, published 2023).

In general, IC50 refers to the point on the concentration scale where inhibition reaches its midpoint. As for `Cc1ncccc1-c1ccc(NC(=O)C(C)(C)c2csc(NS(=O)(=O)C3CC3)n2)cc1` [T103, 2-(2-(cyclopropanesulfonamido)thiazol-4-yl)-2-methyl-N-(4-(2-methylpyridin-3-yl)phenyl)propanamide], the concentration for half-maximal inhibition (IC50) lay in the range of 100 to 1000 nM. The value for `CC(C)(C(=O)Nc1ccc(-c2cccc(Cl)n2)cc1)c1csc(NS(=O)(=O)C2CC2)n1` [T268, N-(4-(6-chloropyridin-2-yl)phenyl)-2-(2-(cyclopropanesulfonamido)thiazol-4-yl)-2-methylpropanamide] was 100 to 1000 nM; that for `CC(C)(C(=O)Nc1ccc(-c2cccnc2)cc1OC(F)(F)F)c1csc(NS(=O)(=O)C2CC2)n1` [T40, 2-(2-(cyclopropanesulfonamido)thiazol-4-yl)-2-methyl-N-(4-(pyridin-3-yl)-2-(trifluoromethoxy)phenyl)propanamide] was below 100 nM. Regarding `CC(C)(C(=O)Nc1ccc(-c2cccc(C(F)(F)F)n2)cn1)c1csc(NS(=O)(=O)C2CC2)n1` [T51, 2-(2-(cyclopropanesulfonamido)thiazol-4-yl)-2-methyl-N-(6-(trifluoromethyl)-[2,3′-bipyridin]-6′-yl)propanamide], the IC50 was below 100 nM. As for `CC(C)(C(=O)Nc1ccc(-c2cccnc2)cc1)c1csc(NS(=O)(=O)C2(C)CC2)n1` [T299, 2-methyl-2-(2-((1-methylcyclopropane)-1-sulfonamido)thiazol-4-yl)-N-(4-(pyridin-3-yl)phenyl)propanamide], the IC50 was 100 to 1000 nM. The value for `O=C(Cc1csc(NS(=O)(=O)C2CC2)n1)Nc1ccc(-c2cccnc2)c(F)c1F` [T188, 2-(2-(cyclopropanesulfonamido)thiazol-4-yl)-N-(2,3-difluoro-4-(pyridin-3-yl)phenyl)acetamide] was 100 to 1000 nM. Turning to `CC(C)(C(=O)Nc1ccc(-c2cccnn2)cc1)c1csc(NS(=O)(=O)C2CC2)n1` [T68, 2-(2-(cyclopropanesulfonamido)thiazol-4-yl)-2-methyl-N-(4-(pyridazin-3-yl)phenyl)propanamide], the IC50 lay within 100 to 1000 nM. As to `CC(C)(C(=O)Nc1ccc(-c2cncc(Cl)c2)cc1)c1csc(NS(=O)(=O)C2CC2)n1` [T252, N-(4-(5-chloropyridin-3-yl)phenyl)-2-(2-(cyclopropanesulfonamido)thiazol-4-yl)-2-methylpropanamide], the IC50 is below 100 nM. The value for `CCOc1cc(NC(=O)C(C)(C)c2csc(NS(=O)(=O)C3CC3)n2)ccc1-c1cncc(C#N)c1` [T289, N-(4-(5-cyanopyridin-3-yl)-3-ethoxyphenyl)-2-(2-(cyclopropanesulfonamido)thiazol-4-yl)-2-methylpropanamide] was 100 to 1000 nM; that for `CC(C)(C(=O)Nc1ccc(-c2cncc(C(F)(F)F)n2)cc1)c1csc(NS(=O)(=O)C2CC2)n1` [T267, 2-(2-(cyclopropanesulfonamido)thiazol-4-yl)-2-methyl-N-(4-(6-(trifluoromethyl)pyrazin-2-yl)phenyl)propanamide] was below 100 nM; that for `CC(C)Oc1cncc(-c2ccc(NC(=O)C(C)(C)c3csc(NS(=O)(=O)C4CC4)n3)c(F)c2)c1` [T159, 2-(2-(cyclopropanesulfonamido)thiazol-4-yl)-N-(2-fluoro-4-(5-isopropoxypyridin-3-yl)phenyl)-2-methylpropanamide] was below 100 nM. In the case of `CN(C(=O)Cc1csc(NS(=O)(=O)C2CC2)n1)c1ccc(-c2cccnc2)cc1` [T26, 2-(2-(cyclopropanesulfonamido)thiazol-4-yl)-N-methyl-N-(4-(pyridin-3-yl)phenyl)acetamide], the half-inhibitory concentration (IC50) lay in the range of 100 to 1000 nM. The value for `CC(C)(C)c1ccc(-c2ccc(NC(=O)Cc3csc(NS(=O)(=O)C4CC4)n3)cc2)cc1` [T243, N-(4′-(tert-butyl)-[1,1′-biphenyl]-4-yl)-2-(2-(cyclopropanesulfonamido)thiazol-4-yl)acetamide] was 1000 to 10000 nM; that for `Cc1sc(NS(=O)(=O)C2CC2)nc1C(C)(C)C(=O)Nc1ccc(-c2cccnc2)cc1` [T319, 2-(2-(cyclopropanesulfonamido)-5-methylthiazol-4-yl)-2-methyl-N-(4-(pyridin-3-yl)phenyl)propanamide] was 1000 to 10000 nM; that for `CC(C)(C(=O)Nc1ccc(-c2ccccc2)cn1)c1csc(NS(=O)(=O)C2CC2)n1` [T63, 2-(2-(cyclopropanesulfonamido)thiazol-4-yl)-2-methyl-N-(5-phenylpyridin-2-yl)propanamide] was 100 to 1000 nM. For the compound `Cc1cc(Cl)cc(-c2ccc(NC(=O)C(C)(C)c3csc(NS(=O)(=O)C4CC4)n3)nc2)c1` [T231, N-(5-(3-chloro-5-methylphenyl)pyridin-2-yl)-2-(2-(cyclopropanesulfonamido)thiazol-4-yl)-2-methylpropanamide], the IC50 was in the range of 1000 to 10000 nM. For the compound `CN(C)CCOc1cncc(-c2ccc(NC(=O)C(C)(C)c3csc(NS(=O)(=O)C4CC4)n3)cc2)n1` [T279, 2-(2-(cyclopropanesulfonamido)thiazol-4-yl)-N-(4-(6-(2-(dimethylamino)ethoxy)pyrazin-2-yl)phenyl)-2-methylpropanamide], the IC50 lay within 1000 to 10000 nM.

As for `CC(C)(C(=O)Nc1ccc(-c2cnccn2)c(C#N)c1)c1csc(NS(=O)(=O)C2CC2)n1` [T34, N-(3-cyano-4-(pyrazin-2-yl)phenyl)-2-(2-(cyclopropanesulfonamido)thiazol-4-yl)-2-methylpropanamide], the 50% inhibitory concentration (IC50) was 100 to 1000 nM. Take `CC(C)(C(=O)Nc1ccc(-c2cncc(Cl)c2)cn1)c1csc(NS(=O)(=O)C2CC2)n1` [T225, N-(5′-chloro-[3,3′-bipyridin]-6-yl)-2-(2-(cyclopropanesulfonamido)thiazol-4-yl)-2-methylpropanamide]: the IC50 is below 100 nM.

Consider `COc1ccc(-c2ccc(NC(=O)Cc3csc(NS(=O)(=O)C4CC4)n3)cc2)cn1` [T260, 2-(2-(cyclopropanesulfonamido)thiazol-4-yl)-N-(4-(6-methoxypyridin-3-yl)phenyl)acetamide], for which the IC50 lay in the range of 1000 to 10000 nM. The value for `Cc1ccc(-c2ccc(NC(=O)Cc3csc(NS(=O)(=O)C4CC4)n3)cc2)cn1` [T101, 2-(2-(cyclopropanesulfonamido)thiazol-4-yl)-N-(4-(6-methylpyridin-3-yl)phenyl)acetamide] was 1000 to 10000 nM; that for `CCC(C(=O)Nc1ccc(-c2cncc(F)c2)cc1)c1csc(NS(=O)(=O)C2CC2)n1` (single isomer, unassigned) [T72, 2-(2-(cyclopropanesulfonamido)thiazol-4-yl)-N-(4-(5-fluoropyridin-3-yl)phenyl)butanamide] was below 100 nM; that for `CC(C)(C(=O)Nc1ccc(-c2cncc(S(C)(=O)=O)c2)cc1)c1csc(NS(=O)(=O)C2CC2)n1` [T49, 2-(2-(cyclopropanesulfonamido)thiazol-4-yl)-2-methyl-N-(4-(5-(methylsulfonyl)pyridin-3-yl)phenyl)propanamide] was 100 to 1000 nM. With `CC(C)(C(=O)Nc1ccc(-c2cccnc2)c(F)c1F)c1csc(NS(=O)(=O)C2CC2)n1` [T36, 2-(2-(cyclopropanesulfonamido)thiazol-4-yl)-N-(2,3-difluoro-4-(pyridin-3-yl)phenyl)-2-methylpropanamide], the IC50 was 100 to 1000 nM. For `CC(C)(C(=O)Nc1ccc(-c2cncc(OCC(F)(F)F)n2)cc1)c1csc(NS(=O)(=O)C2CC2)n1` [T127, 2-(2-(cyclopropanesulfonamido)thiazol-4-yl)-2-methyl-N-(4-(6-(2,2,2-trifluoroethoxy)pyrazin-2-yl)phenyl)propanamide] the value was below 100 nM; for `Cc1cncc(-c2ccc(NC(=O)C(C)(C)c3csc(NS(=O)(=O)C4CC4)n3)cc2)n1` [T266, 2-(2-(cyclopropanesulfonamido)thiazol-4-yl)-2-methyl-N-(4-(6-methylpyrazin-2-yl)phenyl)propanamide], below 100 nM. For `CCOc1cncc(-c2ccc(NC(=O)C(C)(C)c3csc(NS(=O)(=O)C4CC4)n3)cc2)n1` [T52, 2-(2-(cyclopropanesulfonamido)thiazol-4-yl)-N-(4-(6-ethoxypyrazin-2-yl)phenyl)-2-methylpropanamide], the half-maximal inhibitory concentration (IC50) is below 100 nM.
